What was measured:
Assay type in all cases: cell-based
α4β2α5 = target: T1, α4β2α5 (Homo sapiens, UniProt P17787+P43681); experiment: Activation of heteromeric nAChR by S1: α4(2)β2(2)α5
T1 construct: expressed in transfected cells; host or cells: Xenopus laevis oocytes (injected RNA)
Description: (§1) Concatamers were used in order to obtain heteromeric receptors with known subunit composition. The β2-6-α4 concatamer was co-expressed with monomeric α4, β2, or α5 to obtain receptors with the composition α4(3)β2(2), α4(2)β2(3), or α4(2)β2(2)α5, respectively. A concatamer of five linked subunits was used to obtain the β3α4 β2α6β2 receptors. The α3β4 receptors were formed from the co-expression of α3 and β4 subunit monomers at equal ratios. Note that the data were initially measured relative to internal ACh control responses for each oocyte (Methods). Responses were subsequently adjusted for the relative values of the ACh controls and the ACh maximum responses for each of the various subtypes, determined in previous experiments.
(§2) Figure 6 Activation of heteromeric neuronal nAChR by S1. […] Data are the average peak currents (n = 6–8 oocytes ± SEM), measured relative to initial ACh control responses for each oocyte (concentrations listed in Methods). Responses were subsequently adjusted for the relative values of the ACh controls and the ACh maximum responses for each of the various subtypes, determined in previous experiments. […]
(§3) Solutions were applied from 96-well plates via disposable tips. […] The responses were calculated as both peak current amplitudes and net charge, as previously described. […] Multi-cell averages were calculated for comparisons of complex responses. […]

[1] = target: T2, α4(2)β2(2)β2L15’M receptors (Homo sapiens, UniProt P17787+P43681, L280M); experiment: Silent agonism of the TQS-sensitive α4β2L15’M mutant receptor
T2 construct: expressed in transfected cells; host or cells: Xenopus laevis oocytes (injected RNA)
T2 sequence (P17787 26-502, stated change not applied): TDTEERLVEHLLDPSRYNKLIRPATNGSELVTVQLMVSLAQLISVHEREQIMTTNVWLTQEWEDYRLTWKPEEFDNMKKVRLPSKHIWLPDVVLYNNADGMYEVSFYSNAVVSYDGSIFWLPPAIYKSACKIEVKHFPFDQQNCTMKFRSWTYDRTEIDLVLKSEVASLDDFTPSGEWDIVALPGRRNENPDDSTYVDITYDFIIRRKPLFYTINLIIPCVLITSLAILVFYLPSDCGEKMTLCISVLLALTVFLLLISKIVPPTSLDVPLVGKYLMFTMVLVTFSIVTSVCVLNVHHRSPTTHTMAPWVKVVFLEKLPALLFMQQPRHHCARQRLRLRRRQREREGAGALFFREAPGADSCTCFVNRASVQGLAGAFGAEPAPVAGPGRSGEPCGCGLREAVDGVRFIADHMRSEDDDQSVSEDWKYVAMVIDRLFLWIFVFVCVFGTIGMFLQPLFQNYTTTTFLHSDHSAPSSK
T2 sequence (P43681 27-627): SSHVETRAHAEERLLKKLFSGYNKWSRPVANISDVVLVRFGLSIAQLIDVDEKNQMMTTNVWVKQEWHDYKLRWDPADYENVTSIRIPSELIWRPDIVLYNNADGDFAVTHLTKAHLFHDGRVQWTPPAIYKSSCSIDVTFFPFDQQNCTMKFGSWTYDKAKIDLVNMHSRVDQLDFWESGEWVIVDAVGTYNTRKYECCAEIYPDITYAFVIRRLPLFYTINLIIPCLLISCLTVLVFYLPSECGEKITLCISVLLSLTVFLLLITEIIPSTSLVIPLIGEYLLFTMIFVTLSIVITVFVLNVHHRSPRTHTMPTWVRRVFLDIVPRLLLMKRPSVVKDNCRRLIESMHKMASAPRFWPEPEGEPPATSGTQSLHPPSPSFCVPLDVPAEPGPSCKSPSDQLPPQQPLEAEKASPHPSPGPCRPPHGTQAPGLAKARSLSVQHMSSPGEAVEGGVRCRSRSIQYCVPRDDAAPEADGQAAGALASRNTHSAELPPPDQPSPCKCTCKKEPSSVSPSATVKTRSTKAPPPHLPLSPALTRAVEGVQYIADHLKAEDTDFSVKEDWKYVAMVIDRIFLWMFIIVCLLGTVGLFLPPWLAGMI
T2 sequence (P17787 26-502 L280M): as the sequence (P17787 26-502, stated change not applied) above, with L255M counted along it
Procedure: We conducted a screen of the other sulfonium compounds on the α4β2L15’M receptors and identified at least two compounds that gave potentiated responses above our limit of detection indicated by the dotted line in Figure 8B.
Figure 8 Silent agonism of an α4β2 mutant receptor that is sensitive to the α7 PAM TQS. (A) The averaged raw data of responses of eight oocytes expressing the β2-6-α4 concatamer and the β2L15’M mutant to 100 µM of the sulfonium agonist S1, applied alone or co-applied with 30 µM racemic TQS. […] (B) Evaluation of the effects of the sulfonium compounds, applied alone at 100 µM or co-applied with 30 µM TQS to α4(2)β2(2)β2L15’M receptors. […]
Solutions were applied from 96-well plates via disposable tips. […] The responses were calculated as both peak current amplitudes and net charge, as previously described. Data were collected at 50 Hz, filtered at 20 Hz for α7 receptors or filtered at 5 Hz for heteromeric nAChR, and analyzed by Clampfit (Molecular Devices, San Jose, CA, USA) and Excel (Microsoft, Redmond, WA, USA). Data were expressed as means ± SEM from at least four oocytes for each experiment and plotted with Kaleidagraph 4.5.2 (Abelbeck Software, Reading, PA, USA). Multi-cell averages were calculated for comparisons of complex responses. […]

α3β4 = target: T3, α3β4 (Homo sapiens, UniProt P30926+P32297); experiment: Activation of heteromeric nAChR by S1: α3β4
T3 construct: expressed in transfected cells; host or cells: Xenopus laevis oocytes (injected RNA)
T3 sequence (P32297 32-505): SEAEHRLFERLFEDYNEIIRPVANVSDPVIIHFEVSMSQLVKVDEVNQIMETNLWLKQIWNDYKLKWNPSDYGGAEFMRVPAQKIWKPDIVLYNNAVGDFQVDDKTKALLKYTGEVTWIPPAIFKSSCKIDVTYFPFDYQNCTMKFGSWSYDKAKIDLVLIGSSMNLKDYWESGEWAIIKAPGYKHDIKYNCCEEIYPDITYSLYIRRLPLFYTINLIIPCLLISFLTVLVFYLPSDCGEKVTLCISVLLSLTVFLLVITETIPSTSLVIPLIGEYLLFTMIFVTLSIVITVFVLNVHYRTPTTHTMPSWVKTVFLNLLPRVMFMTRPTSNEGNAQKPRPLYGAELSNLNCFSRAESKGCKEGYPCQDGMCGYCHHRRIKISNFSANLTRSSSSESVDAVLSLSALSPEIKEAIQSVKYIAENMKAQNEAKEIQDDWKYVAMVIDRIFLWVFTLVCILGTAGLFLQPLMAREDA
T3 sequence (P30926 22-498): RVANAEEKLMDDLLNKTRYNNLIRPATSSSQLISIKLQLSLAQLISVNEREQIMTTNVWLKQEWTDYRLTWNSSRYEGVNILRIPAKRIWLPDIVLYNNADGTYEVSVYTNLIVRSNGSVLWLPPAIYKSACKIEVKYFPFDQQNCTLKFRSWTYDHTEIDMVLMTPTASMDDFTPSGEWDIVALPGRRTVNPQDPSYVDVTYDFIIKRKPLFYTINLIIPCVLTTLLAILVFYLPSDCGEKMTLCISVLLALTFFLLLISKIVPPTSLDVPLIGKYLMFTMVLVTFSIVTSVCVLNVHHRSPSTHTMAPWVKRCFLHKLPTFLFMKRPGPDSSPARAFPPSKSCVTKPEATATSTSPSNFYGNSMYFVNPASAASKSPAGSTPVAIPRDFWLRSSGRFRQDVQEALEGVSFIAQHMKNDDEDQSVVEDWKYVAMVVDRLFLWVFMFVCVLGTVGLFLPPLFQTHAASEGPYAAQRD
Description: as §1, §2, §3

[2] = peak currents relative to ACh maximum

T1 sequence (P17787 26-502): as the sequence (P17787 26-502, stated change not applied) above
T1 sequence (P43681 29-627 limits assumed): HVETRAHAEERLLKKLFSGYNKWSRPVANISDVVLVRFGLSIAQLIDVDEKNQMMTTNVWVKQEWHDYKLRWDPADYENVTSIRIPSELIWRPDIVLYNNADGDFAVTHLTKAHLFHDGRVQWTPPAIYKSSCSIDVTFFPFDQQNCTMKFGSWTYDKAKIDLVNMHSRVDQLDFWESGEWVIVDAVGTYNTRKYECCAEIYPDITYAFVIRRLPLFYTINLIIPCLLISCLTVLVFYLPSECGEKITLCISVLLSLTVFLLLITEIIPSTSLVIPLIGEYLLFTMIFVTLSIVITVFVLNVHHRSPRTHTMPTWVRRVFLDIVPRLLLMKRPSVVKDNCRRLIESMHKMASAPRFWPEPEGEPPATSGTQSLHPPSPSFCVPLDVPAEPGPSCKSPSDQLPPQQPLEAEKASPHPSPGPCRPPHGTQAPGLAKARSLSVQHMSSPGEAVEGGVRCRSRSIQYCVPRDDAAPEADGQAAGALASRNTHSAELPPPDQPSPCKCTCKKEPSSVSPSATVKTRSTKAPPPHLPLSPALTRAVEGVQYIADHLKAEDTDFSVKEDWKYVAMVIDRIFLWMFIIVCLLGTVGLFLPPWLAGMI

In the case of C[S+](C)C.[I-] [Compound S1, trimethylsulfonium iodide], the “IMax (S1 Activation)” value (α4β2α5; [2]) is reported as 0.50 ± 0.03, the EC50 (α4β2α5; peak currents, unit inferred) is reported as 114 ± 25 µM and the “activation of α4β2L15’M mutant receptors” value ([1]; 100 µM applied alone) is reported as “activated the α4β2L15’M mutant receptors”. For the same compound, the “response on co-application with TQS” value ([1]; 100 µM compound with 30 µM TQS, limit of detection 20 nA) was “potentiated by TQS”, the “IMax (S1 Activation)” value (α3β4; [2]) was 1.18 ± 0.01 and the EC50 (α3β4; peak currents, unit inferred) was 1420 ± 19.4 µM.
